Laboratory results reported in patent publication US8063225B2, “Tricyclic compound derivatives useful in the treatment of neoplastic diseases, inflammatory disorders and immunomodulatory disorders” (Chembridge Corporation, priority 2006, dated 2011).

What was measured:
[1] = system: HEK293 (human normal embryonic kidney); test: Cell proliferation inhibition, Cell Titer-Glo, HEK293; assay type: cell-based; settings: cell proliferation assay, HEK293 cells, read-out: HEK 293 IC50
Description: (§1) IGF1R and other tyrosine kinase inhibitors can inhibit the proliferation of certain cancer cell lines indicating their possible therapeutic utility for treating the corresponding cancer types. Cancer cell lines of interest and control normal lines, including CHO, HEK293, BA/F3, MM1, H929, COLO205, PC3, DU145, MCF7, Panc1, ACHN, Hep G2, H460, K562, TT, U87-G, CAOV-3, SK-MEL5, Karpas 299, are plated in white, clear-bottomed 384-well cell culture plates at 2500-5000 cells per well and supplied with dilutions of tested compounds After a desired period of time (typically 3 days), the number of viable cells is quantitated by using Cell Titer-Glo Luminescent Cell Viability Assay (Promega), a cell proliferation assay system based on detection of total amount of ATP present as a measure of cell metabolic activity. The plated cells are mixed with the Cell Titer-Glo developing reagent and counted in a luminescence multiwell plate reader according to the standard manufacturer's protocol to generate IC50 curves for cell proliferation inhibition.
(§2) IGF1R and other tyrosine kinase inhibitors can inhibit the proliferation of certain cancer cell lines indicating their possible therapeutic utility for treating the corresponding cancer types. Cancer cell lines of interest and control normal lines, including CHO, HEK293, BA/F3, COLO205, PC3, DU145, MCF7, Panc1, ACHN, Hep G2, H460, K562, TT, U87-MG, CAOV-3, SK-MEL5, Karpas 299 and human multiple myeloma cell lines H929, MM1s, MM1r, UTMC2, CPM2, KMS11, My5, KMS12PE, My7, JJN3, KMS18, U266, SKMM2, RPMI-8226 are plated in white, clear-bottomed 384-well cell culture plates at 2500-5000 cells per well and supplied with dilutions of tested compounds After a desired period of time (typically 3 days), the number of viable cells is quantitated by using Cell Titer-Glo Luminescent Cell Viability Assay (Promega), a cell proliferation assay system based on detection of total amount of ATP present as a measure of cell metabolic activity. The plated cells are mixed with the Cell Titer-Glo developing reagent and counted in a luminescence multiwell plate reader according to the standard manufacturer's protocol to generate IC50 curves for cell proliferation inhibition. Results are typically reported as percent of growth (% viability =(OD72h(compound)−ODday0))/(OD72h(no compound)−ODday0). Alternatively, viable cells are quantitated by using the conventional colorimetric MTT assay. The MTT assay is based on the cleavage of the yellow tetrazolium salt MTT to purple formazan crystal by metabolic active cells. The formazan is then solubilized, and the concentration determined by optical density at 570 nm. The cells plated and incubated with a compound as described above are supplemented with the solution of MTT and incubated for 2-3 hours. The growth medium is removed and dimethyl sulfoxide is added into each well to dissolve the formazan. The absorbance is measured on an ELISA plate reader with a test wavelength of 570 nm and a background subtraction wavelength of 630 nm to obtain sample signal (OD570-OD630). […] The results are reported in terms of IC50 value for a particular compound and a cell line in the standard 3-day proliferation assay using Cell Titer-Glo. […] The results are reported in terms of IC50 value for a particular compound and a cell line in the standard 3-day proliferation assay using MTT assay.

[2] = system: CHO (chinese hamster ovary); test: Cell proliferation inhibition, Cell Titer-Glo, CHO; assay type: cell-based; settings: Cricetulus griseus; cell proliferation assay, CHO cells
Description: as §1, §2

TrkA = target: T1, TrkA (Homo sapiens, UniProt P04629); test: Tyrosine kinase assay (Kinase-Glo or AlphaScreen), TrkA; settings: biochemical tyrosine kinase assay
T1 construct: 6×His- or GST-tagged kinase domain fragments of the corresponding RTKs expressed in baculovirus system; host or cells: baculovirus system
Description: To determine inhibition of several tyrosine kinases, such as IGF1R, InsR, Alk, TrkA and Jak2, kinase assays are conducted using either Kinase-Glo (Promega) or AlphaScreen (PerkinElmer) kinase assay platforms. The Kinase-Glo Luminescent Kinase Assay is a homogeneous method for measuring kinase activity by determining the amount of ATP remaining after a kinase reaction. The luminescent signal is proportional to the amount of ATP and inversely proportional to the amount of kinase activity. Tyrosine kinase PT66 AlphaScreen Assay is a high-sensitivity homogeneous, anti-phosphotyrosine antibody-mediated luminescent proximity method measuring, incorporation of phosphate in synthetic poly(Glu-Tyr) substrate. The kinase preparations used consist of purified recombinant, 6×His- or GST-tagged kinase domain fragments of the corresponding RTKs expressed in baculovirus system.
The IGF1R tyrosine kinase is assayed in Kinase-Glo ATP depletion assay using the synthetic polymer poly(Glu-Tyr, 4:1) (Sigma Chemicals) as a phosphoacceptor substrate. Each reaction mixture consists of a total volume of 10 μl and contains 40 ng of the enzyme, 5 μg of poly(Glu-Tyr), 10 μM of ATP and variable concentrations of test compounds. The mixtures also contain 50 mM Tris-HCl, pH 7.5; 5 mM MgCl2; 5 mM MnCl2; 2 mM DTT and 0.01% Tween 20. The reaction mixtures are incubated at 37° C. for 60 minutes and residual concentration of ATP in the mixture is determined by adding luciferase-containing Kinase-Glo (Promega) development reagent and counting luminescence levels using Fusion Universal Microplate Analyzer (PerkinElmer). Tested compounds are dissolved in dimethyl sulfoxide to a stock concentration of 10 mM and are typically evaluated in the assay at eight concentrations in 1 nM to 20 μM range, each in quadruplicate. […] IC50 values are derived by non-linear regression analysis using Prism 3.0 software (Graphpad Software). Other tyrosine kinases are assayed according to the same protocol after titrating amount of the enzyme to provide optimal signal-to-noise ratio and no more than 30% of total ATP consumption in the reaction conditions used.
The IGF1R tyrosine kinase is assayed in Phosphotyrosine (PT66 or PT 100) AlphaScreen chemiluminescent assay (PerkinElmer) according to the manufacturerer's recommendations. Each kinase reaction mixture consists of a total volume of 15 μl and contains 0.1-1 ng of the enzyme, 7 ng of biotinylated poly(Glu-Tyr) (Cis-Bio), 10 μM of ATP and variable concentrations of test compounds. The mixtures also contain 50 mM Tris-HCl, pH 7.5; 5 mM MgCl2; 5 mM MnCl2; 2 mM DTT and 0.01% Tween 20. The reaction mixtures are incubated at room temperature for 30 minutes. Ten (10) μl of the mixture of […] and donor beads (as supplied by the manufacturer) is then added to the reaction and the incubation is continued for an additional 60 minutes.

T1 sequence (P04629 510-781 limits assumed, species assumed): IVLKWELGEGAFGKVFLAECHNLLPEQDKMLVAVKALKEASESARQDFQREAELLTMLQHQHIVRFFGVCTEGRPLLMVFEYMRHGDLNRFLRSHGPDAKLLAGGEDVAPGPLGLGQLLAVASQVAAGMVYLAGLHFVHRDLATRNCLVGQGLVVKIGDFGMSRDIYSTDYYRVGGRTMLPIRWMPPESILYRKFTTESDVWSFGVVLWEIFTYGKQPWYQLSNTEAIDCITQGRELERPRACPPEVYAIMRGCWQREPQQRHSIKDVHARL

Row | Compound | IC50 [1] [µM] | IC50 [2] [µM] | IC50 (TrkA) [µM]
1 | Cc1cc(C)c(OC[C@H](O)CNc2cc[nH]c(=O)c2-c2nc3cc4c(cc3[nH]2)C(=O)N(C2CCN(C)CC2)C4=O)cc1Cl [compound 108] | 5 to 15 |  | 
2 | CN1CCC(N2C(=O)c3cc4nc(-c5c(NC[C@@H](O)COc6c(F)ccc(Cl)c6F)cc[nH]c5=O)[nH]c4cc3C2=O)CC1 [compound 95] | 5 to 15 |  | 
3 | CCN1CCC(N2C(=O)c3cc4nc(-c5c(NC[C@@H](O)COc6ccc(C)cc6C)cc[nH]c5=O)[nH]c4cc3C2=O)CC1 [compound 143] | > 15 | > 15 | 
4 | Cc1c(Cl)cccc1OC[C@H](O)CNc1cc[nH]c(=O)c1-c1nc2cc3c(cc2[nH]1)C(=O)N(C1CCN(C)CC1)C3=O [compound 94] | > 15 |  | 
5 | CCc1cc(C)ccc1OC[C@H](O)CNc1cc[nH]c(=O)c1-c1nc2cc3c(cc2[nH]1)CN(C1CCN(C)CC1)C3=O [compound 141] | > 15 | > 15 | 
6 | C[C@H](O)CN1C(=O)c2cc3nc(-c4c(NC[C@@H](O)c5cccc(Cl)c5)cc[nH]c4=O)[nH]c3cc2C1=O [compound 31] | 5 to 15 |  | 
7 | CN1CCC(N2C(=O)c3cc4nc(-c5c(NC[C@@H](O)COc6cccc(C(F)(F)F)c6)cc[nH]c5=O)[nH]c4cc3C2=O)CC1 [compound 97] | > 15 |  | 
8 | Cc1ccc(OC[C@H](O)CNc2cc[nH]c(=O)c2-c2nc3cc4c(c(C)c3[nH]2)CN(C2CCN(C)CC2)C4=O)c(C)c1 [compound 132] | > 15 | > 15 | 
9 | Cc1ccc2c(ccn2C[C@H](O)CNc2cc[nH]c(=O)c2-c2nc3cc4c(cc3[nH]2)C(=O)N(C2CCN(C)CC2)C4=O)c1 [compound 131] | 0.5 to 5 | 5 to 15 | < 0.5
10 | Cc1ccc(OC[C@H](O)CNc2cc[nH]c(=O)c2-c2nc3cc4c(cc3[nH]2)CN(C2CCN(C)CC2)C4=O)c(C)c1 [compound 130] | > 15 | > 15 | 
11 | CN1CCC(N2C(=O)c3cc4nc(-c5c(NC[C@@H](O)c6cccc(Cl)c6)cc[nH]c5=O)[nH]c4cc3C2=O)CC1 [compound 1] | 5 to 15 |  | 
12 | Cc1ccc(OC[C@H](O)CNc2cc[nH]c(=O)c2-c2nc3c(C)c4c(cc3[nH]2)CN(C2CCN(C)CC2)C4=O)c(C)c1 [compound 140] | 5 to 15 | > 15 | 
13 | CCN1CCC(N2Cc3cc4nc(-c5c(NC[C@@H](O)COc6ccc(C)cc6C)cc[nH]c5=O)[nH]c4cc3C2=O)CC1 [compound 144] | 5 to 15 | 5 to 15 | 
14 | Cc1ccc(OC[C@H](O)CNc2cc[nH]c(=O)c2-c2nc3cc4c(cc3[nH]2)C(=O)N(C2CCN(C)CC2)C4=O)c(C)c1 [compound 59] | 5 to 15 |  | 
15 | COc1ccc(OC[C@H](O)CNc2cc[nH]c(=O)c2-c2nc3cc4c(cc3[nH]2)C(=O)N(C2CCN(C)CC2)C4=O)c(OC)c1OC [compound 93] | 5 to 15 |  | 
16 | Cc1ccc(OC[C@H](O)CNc2cc[nH]c(=O)c2-c2nc3cc4c(cc3[nH]2)C(=O)N(C2CCNCC2)C4=O)c(C)c1 [compound 142] | 5 to 15 | 5 to 15 | 
17 | Cc1ccc(OC[C@H](O)CNc2cc[nH]c(=O)c2-c2nc3c(C)c4c(cc3[nH]2)C(=O)N(C2CCN(C)CC2)C4)c(C)c1 [compound 139] | > 15 | > 15 | 
18 | Cc1ccc(OCC(O)CNc2cc[nH]c(=O)c2-c2nc3cc4c(cc3[nH]2)C(=O)N(C2CCN(C)CC2)C4=O)c(C)c1 (centres unmarked) [compound 15] | 5 to 15 |  | < 0.5
